In patent publication US20150353495A1 (PORTOLA PHARMACEUTICALS, INC., priority 2010, published 2015):

Key:
Assay type in all cases: biochemical
JAK3 = molecular target: T1, JAK3 (Homo sapiens, UniProt P52333); experiment: Z'-LYTE kinase assay JAK3
T1 construct: 5 μl of catalytic domain recombinant Kinase enzyme+Tyr peptide substrate (Invitrogen, CA); purchased Invitrogen
Summary of the method: (§1)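 Catalytic-domain recombinant kinase was incubated with Tyr6 FRET peptide, ATP and compound (1% DMSO final) for 1 h at room temperature. Protease development followed for 1 h, cleaving only non-phosphorylated peptide. Inhibition of phosphorylation was read as coumarin/fluorescein FRET fluorescence.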

JAK1 = molecular target: T2, JAK1 (Homo sapiens, UniProt P23458); experiment: Z'-LYTE kinase assay JAK1
T2 construct: 5 μl of catalytic domain recombinant Kinase enzyme+Tyr peptide substrate (Invitrogen, CA); purchased Invitrogen
T2 sequence (P23458 875-1153 limits assumed): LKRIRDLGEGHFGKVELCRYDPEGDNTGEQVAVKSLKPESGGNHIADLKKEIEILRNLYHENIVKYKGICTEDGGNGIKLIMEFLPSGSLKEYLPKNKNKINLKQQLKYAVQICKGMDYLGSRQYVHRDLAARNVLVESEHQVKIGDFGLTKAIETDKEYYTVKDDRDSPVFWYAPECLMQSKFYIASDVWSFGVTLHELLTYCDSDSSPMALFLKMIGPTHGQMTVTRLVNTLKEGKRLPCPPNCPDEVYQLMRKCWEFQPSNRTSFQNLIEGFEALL
Summary of the method: as §1

JAK2 = molecular target: T3, JAK2 (Homo sapiens, UniProt O60674); experiment: Z'-LYTE kinase assay JAK2
T3 construct: 5 μl of catalytic domain recombinant Kinase enzyme+Tyr peptide substrate (Invitrogen, CA); purchased Invitrogen
T3 sequence (O60674 849-1124 limits assumed): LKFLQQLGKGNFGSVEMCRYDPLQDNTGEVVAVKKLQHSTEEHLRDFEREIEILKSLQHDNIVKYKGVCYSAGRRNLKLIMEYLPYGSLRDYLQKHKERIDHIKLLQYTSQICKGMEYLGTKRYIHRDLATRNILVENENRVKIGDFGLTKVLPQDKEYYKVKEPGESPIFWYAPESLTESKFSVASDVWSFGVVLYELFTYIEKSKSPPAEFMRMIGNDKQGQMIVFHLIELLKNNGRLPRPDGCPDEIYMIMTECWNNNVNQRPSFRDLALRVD
Summary of the method: as §1

T1 sequence (P52333 822-1111 limits assumed): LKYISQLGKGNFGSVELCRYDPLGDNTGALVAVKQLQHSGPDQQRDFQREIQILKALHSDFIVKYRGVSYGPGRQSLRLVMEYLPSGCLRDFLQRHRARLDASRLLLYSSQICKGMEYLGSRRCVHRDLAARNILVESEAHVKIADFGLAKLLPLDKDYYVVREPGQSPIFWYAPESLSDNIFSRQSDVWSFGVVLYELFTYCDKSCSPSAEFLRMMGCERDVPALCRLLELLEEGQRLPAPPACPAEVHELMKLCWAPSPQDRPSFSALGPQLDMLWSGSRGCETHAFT

Row | IC50 (JAK3) [nM] | IC50 (JAK1) [nM] | IC50 (JAK2) [nM] | SMILES
1 | 1 to 10 | 100 to 1000 | 100 to 1000 | CN(C)C(=O)c1ccc(Nc2cc(NCc3cccc(-n4ccnc4)c3)c(C(N)=O)cn2)cc1 [Example 224, 4-(3-(1H-imidazol-1-yl)benzylamino)-6-(4-(dimethylcarbamoyl)phenylamino)nicotinamide]
2 | 1 to 10 | 100 to 1000 | 100 to 1000 | CC(=O)Nc1ccc(Nc2cc(NCc3cncc(F)c3)c(C(N)=O)cn2)cc1 [Example 484, 6-(4-acetamidophenylamino)-4-((5-fluoropyridin-3-yl)methylamino)nicotinamide]
3 | 10 to 100 | > 1000 | 100 to 1000 | NC(=O)c1cnc(Nc2ccc(CN3CCOCC3)cc2)cc1NC1(c2ccccc2)CC1 [Example 127, 6-(4-(morpholinomethyl)phenylamino)-4-(1-phenylcyclopropylamino)nicotinamide]
4 | 10 to 100 | > 1000 | > 1000 | NC(=O)c1cnc(Nc2cccc(N3CCOCC3)c2)cc1NC1(c2ccccc2)CC1 [Example 128, 6-(3-morpholinophenylamino)-4-(1-phenylcyclopropylamino)-nicotinamide]
5 | 10 to 100 | 100 to 1000 | 100 to 1000 | CCC(=O)N1CCC(c2ccc(Nc3cc(NCC4CCCC4)c(C(N)=O)cn3)cc2)CC1 [Example 176, 4-(cyclopentylmethylamino)-6-(4-(1-propionylpiperidin-4-yl)phenylamino)nicotinamide]
6 | 10 to 100 | > 1000 | > 1000 | COCC(=O)N1CCC[C@H](CNc2cc(Nc3ccc(OC)cc3)ncc2C(N)=O)C1 [Example 55, (R)-4-((1-(2-methoxyacetyl)piperidin-3-yl)methylamino)-6-(4-methoxyphenylamino)nicotinamide]
7 | 10 to 100 | > 1000 | 100 to 1000 | CCC(=O)N1CCN(c2ccc(Nc3cc(NC4(c5ccccc5)CC4)c(C(N)=O)cn3)cc2)CC1 [Example 124, 4-(1-phenylcyclopropylamino)-6-(4-(4-propionylpiperazin-1-yl)phenylamino)nicotinamide]
8 | 1 to 10 | 100 to 1000 | 100 to 1000 | NC(=O)c1cnc(Nc2ccc(CC(=O)N3CCCC3)cc2)cc1NCc1ccccc1 [Example 329, 4-(benzylamino)-6-(4-(2-oxo-2-(pyrrolidin-1-yl)ethyl)phenylamino)nicotinamide]
9 | 10 to 100 | 100 to 1000 | 100 to 1000 | NC(=O)c1cnc(Nc2ccc(C3CCOCC3)cc2)cc1NCc1nccs1 [Example 172, 6-(4-(tetrahydro-2H-pyran-4-yl)phenylamino)-4-(thiazol-2-ylmethylamino)nicotinamide]
10 | 100 to 1000 | 100 to 1000 | 100 to 1000 | NC(=O)c1cnc(Nc2ccc(C3CCOCC3)cc2)cc1NC1CCCC1 [Example 150, 4-(cyclopentylamino)-6-(4-(tetrahydro-2H-pyran-4-yl)phenylamino)nicotinamide]
11 | 10 to 100 | > 1000 | 100 to 1000 | CCC(=O)N(C)c1ccc(Nc2cc(NCc3cncc(F)c3)c(C(N)=O)cn2)cc1 [Example 480, 4-((5-fluoropyridin-3-yl)methylamino)-6-(4-(N-methylpropionamido)phenylamino)nicotinamide]
12 | 10 to 100 | > 1000 | 100 to 1000 | CN(C)S(=O)(=O)c1ccc(Nc2cc(NCc3cc(F)ccc3F)c(C(N)=O)cn2)cc1 [Example 98, 4-(2,5-difluorobenzylamino)-6-(4-(N,N-dimethylsulfamoyl)phenylamino)nicotinamide]
13 | 1 to 10 | 10 to 100 | 10 to 100 | CN(C(=O)C1CC1)c1ccc(Nc2cc(NCc3cccc4[nH]ccc34)c(C(N)=O)cn2)cc1 [Example 476, 4-((1H-indol-4-yl)methylamino)-6-(4-(N-methylcyclopropanecarboxamido)phenylamino)nicotinamide]
14 | 10 to 100 | 100 to 1000 | 100 to 1000 | CN(C)C(=O)c1cccc(Nc2cc(NCC3CCCC3)c(C(N)=O)cn2)c1 [Example 95, 4-(cyclopentylmethylamino)-6-(3-(dimethylcarbamoyl)phenylamino)nicotinamide]
15 | 1 to 10 | 100 to 1000 | 10 to 100 | NC(=O)c1cnc(Nc2ccc(C3CNC3)cc2)cc1NCc1cc(F)ccc1F [Example 213, 6-(4-(azetidin-3-yl)phenylamino)-4-(2,5-difluorobenzylamino)nicotinamide]
16 | 1 to 10 | 10 to 100 | 1 to 10 | CCC(=O)N1CC(c2ccc(Nc3cc(NCc4cccc5[nH]ccc45)c(C(N)=O)cn3)cc2)C1 [Example 492, 4-((1H-indol-4-yl)methylamino)-6-(4-(1-propionylazetidin-3-yl)phenylamino)nicotinamide]
17 | 1 to 10 | > 1000 | 100 to 1000 | CCC(=O)N1CCC(c2ccc(Nc3cc(NCc4cccc5ccsc45)c(C(N)=O)cn3)cc2)CC1 [Example 211, 4-(benzo[b]thiophen-7-ylmethylamino)-6-(4-(1-propionylpiperidin-4-yl)phenylamino)nicotinamide]
18 | 100 to 1000 | > 1000 | > 1000 | CN(C)S(=O)(=O)c1ccc(Nc2cc(NCC3CCCC3)c(C(N)=O)cn2)cc1 [Example 97, 4-(cyclopentylmethylamino)-6-(4-(N,N-dimethylsulfamoyl)phenylamino)nicotinamide]
19 | 10 to 100 | > 1000 | 100 to 1000 | NC(=O)c1cnc(Nc2ccc(OCC(=O)N3CCOCC3)cc2)cc1NC1(c2ccccc2)CC1 [Example 133, 6-(4-(2-morpholino-2-oxoethoxy)phenylamino)-4-(1-phenylcyclopropylamino)nicotinamide]
20 | 1 to 10 | 100 to 1000 | 10 to 100 | CC(=O)N(C)c1ccc(Nc2cc(NCc3cccc4ccsc34)c(C(N)=O)cn2)cc1 [Example 468, 4-(benzo[b]thiophen-7-ylmethylamino)-6-(4-(N-methylacetamido)phenylamino)nicotinamide]
21 | > 1000 | > 1000 | > 1000 | COc1ccc(Nc2cc(N[C@H]3CCCN(C(C)=O)C3)c(C(N)=O)cn2)cc1 [Example 36, (S)-4-(1-acetylpiperidin-3-ylamino)-6-(4-methoxyphenylamino)nicotinamide]
22 | 10 to 100 | 100 to 1000 | 100 to 1000 | CS(=O)(=O)N1CC(c2ccc(Nc3cc(NCc4ccccc4)c(C(N)=O)cn3)cc2)C1 [Example 335, 4-(benzylamino)-6-(4-(1-(methylsulfonyl)azetidin-3-yl)phenylamino)nicotinamide]
23 | 10 to 100 | > 1000 | 100 to 1000 | COC[C@@H](Nc1cc(Nc2ccc(C(=O)N(C)C)cc2)ncc1C(N)=O)c1ccccc1 [Example 263, (S)-6-(4-(dimethylcarbamoyl)phenylamino)-4-(2-methoxy-1-phenylethylamino)nicotinamide]
24 | 10 to 100 | > 1000 | 100 to 1000 | CN(C)C(=O)c1ccc(Nc2cc(NCc3cccc4ccn(C)c34)c(C(N)=O)cn2)cc1 [Example 318, 6-(4-(dimethylcarbamoyl)phenylamino)-4-((1-methyl-1H-indol-7-yl)methylamino)nicotinamide]
